Results: patent US6461997B1, “Triazole sulfones having herbicidal activity” (Monsanto Technology LLC, priority 1999, dated 2002)

What was measured:
SORVU (shattercane) = assay: Pre-emergence herbicidal activity, warm season; assay type: in vivo, Sorghum vulgare; conditions: GR80 = lowest tested rate (300, 100, 30, 10 g/ha) with 80% or greater inhibition; approx. 14 days after treating; 30/21° C.
In short: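 Activity is expressed as the rate giving 80% inhibition, with 300, 100, 30 and 10 g/ha typically tested. An asterisk marks activity short of 80% at the top rate. Warm-season grasses were held at 30/21 °C; cool-season blackgrass and wild buckwheat at 18/13 °C; scoring at about 14 days.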

SASKR (russian thistle) = assay: Pre-emergence herbicidal activity, cool season; assay type: in vivo, Salsola kali; conditions: lowest tested rate with 80% or greater inhibition; rates 300, 100, 30, 10 g/ha; about 14 days
In short: (§1)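 GR80 values derive from percent inhibition relative to untreated plants, read roughly 14 days after sowing and pre-emergence soil-surface treatment (compound in 50:50 acetone/water; rates typically 10, 30, 100, 300 g/ha). Warm-season weeds grew at 30/21° C day/night, cool-season ones at 18/13° C; an asterisk marks activity without reaching 80% at the highest rate.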

STEME (common chickweed) = assay: Pre-emergence herbicidal activity, cool season; assay type: in vivo, Stellaria media; conditions: lowest tested rate with 80% or greater inhibition; rates 300, 100, 30, 10 g/ha; about 14 days
In short: as §1

DATST (jimsonweed) = assay: Pre-plant incorporated (PPI) herbicidal activity, warm season; assay type: in vivo, Datura stramonium
Method: (§2) In another set of tests, the pre-plant incorporated (PPI) activity of compounds of this invention was evaluated on the same species as for the pre-emergence tests described above. In the PPI tests the following procedure, designed to simulate PPI application, was used.
(§3) A pre-prepared topsoil mixture (described above) was placed in a pot and compacted to a depth of 1.0 to 1.25 cm from the top of the pot. Seeds of each of several monocotyledonous and dicotyledonous annual plant species were placed on top of the soil. A sufficient quantity of soil to cover the seeds and level fill the pot was weighed into an open container. A known amount of the test compound was dissolved or suspended in an organic solvent and applied by spraying to this cover soil. The cover soil was thoroughly mixed to distribute the test compound throughout the cover soil, and was then applied as a cover layer over the seeds. Untreated soil was used as a cover layer for control pots. After treatment the plants were placed in a greenhouse where they received 0.64 cm of overhead irrigation. All subsequent watering consisted of a light overhead mist and/or subirrigation as needed for germination and growth. Tables 9 and 10 below relate to warm season plant species which were placed after pre-emergence treatment in a greenhouse with a 30/21° C. day/night temperature regime. Tables 11 and 12 below relates to cool season plant species placed after pre-emergence treatment in a greenhouse or growth chamber with an 18/13° C. day/night temperature regime. Only the compounds of Examples 1, 6, 8, 11, 13 and 15-20 were included in PPI tests.
(§4) Approximately 14 days after planting and treating, the plants were observed and herbicidal efficacy recorded as percent inhibition by comparison with untreated plants.

ECHCG (barnyardgrass) = assay: as above; assay type: in vivo, Echinochloa crus-galli
Method: as §2, §3, §4

[1] = test system: PANMI (wild proso millet); assay: as above; assay type: in vivo, Panicum miliaceum
Method: as §2, §3, §4

DIGSA (large crabgrass) = assay: as above; assay type: in vivo, Digitaria sanguinalis
Method: as §2, §3, §4

[2] = test system: VERPE (creeping speedwell); assay: Pre-plant incorporated (PPI) herbicidal activity, cool season; assay type: in vivo, Veronica persicaria
Method: as §2, §3, §4

[3] = test system: AGRRE (quackgrass (seedling)); assay: as above; assay type: in vivo, Elymus repens
Method: as §2, §3, §4

[4] = pre-plant incorporated, lowest tested rate with 80% or greater inhibition, about 14 days

Compound: C=CCC(F)(F)S(=O)(=O)c1ncn(C(=O)N(CC)CC)n1 [Example 17, 1-(N,N-diethylcarbamoyl)-3-[(1,1-difluoro-3-butenyl)sulfonyl]-1,2,4-triazole]
- Pre-emergence activity (GR80) SORVU (SORVU (shattercane)): 100 g/ha
- Pre-emergence activity GR80, SASKR (SASKR (russian thistle)): 100 g/ha
- Pre-emergence activity GR80, STEME (STEME (common chickweed)): 100 g/ha
- inhibition at 10 g/ha (DATST (jimsonweed); Datura stramonium, PPI application, 10 g/ha, read-out: Percent inhibition DATST): 0%
- inhibition at 30 g/ha (DATST (jimsonweed); Datura stramonium, PPI application, 30 g/ha, read-out: Percent inhibition DATST): 0%
- inhibition at 100 g/ha (DATST (jimsonweed); Datura stramonium, PPI application, 100 g/ha, read-out: Percent inhibition DATST): 30%
- inhibition at 300 g/ha (DATST (jimsonweed); Datura stramonium, PPI application, 300 g/ha, read-out: Percent inhibition DATST): 60%
- inhibition at 900 g/ha (DATST (jimsonweed); Datura stramonium, PPI application, 900 g/ha, read-out: Percent inhibition DATST): 99%
- PPI activity (GR80) DATST (DATST (jimsonweed); pre-plant incorporated, GR80 = lowest tested rate with 80% or greater inhibition, approx. 14 days after treating, 30/21° C.): 300 g/ha
- inhibition at 10 g/ha (ECHCG (barnyardgrass); Echinochloa crus-galli, PPI application, 10 g/ha, read-out: Percent inhibition ECHCG): 40%
- inhibition at 30 g/ha (ECHCG (barnyardgrass); Echinochloa crus-galli, PPI application, 30 g/ha, read-out: Percent inhibition ECHCG): 95%
- inhibition at 100 g/ha (ECHCG (barnyardgrass); Echinochloa crus-galli, PPI application, 100 g/ha, read-out: Percent inhibition ECHCG): 100%
- inhibition at 300 g/ha (ECHCG (barnyardgrass); Echinochloa crus-galli, PPI application, 300 g/ha, read-out: Percent inhibition ECHCG): 100%
- inhibition at 900 g/ha (ECHCG (barnyardgrass); Echinochloa crus-galli, PPI application, 900 g/ha, read-out: Percent inhibition ECHCG): 100%
- PPI activity GR80, ECHCG (ECHCG (barnyardgrass); [4]): 30 g/ha
- inhibition at 10 g/ha ([1]; Panicum miliaceum, PPI application, 10 g/ha, read-out: Percent inhibition PANMI): 60%
- inhibition at 30 g/ha ([1]; Panicum miliaceum, PPI application, 30 g/ha, read-out: Percent inhibition PANMI): 100%
- inhibition at 100 g/ha ([1]; Panicum miliaceum, PPI application, 100 g/ha, read-out: Percent inhibition PANMI): 100%
- inhibition at 300 g/ha ([1]; Panicum miliaceum, PPI application, 300 g/ha, read-out: Percent inhibition PANMI): 100%
- inhibition at 900 g/ha ([1]; Panicum miliaceum, PPI application, 900 g/ha, read-out: Percent inhibition PANMI): 100%
- PPI activity GR80, PANMI [1, 4]: 10 g/ha
- inhibition at 10 g/ha (DIGSA (large crabgrass); Digitaria sanguinalis, PPI application, 10 g/ha, read-out: Percent inhibition DIGSA): 60%
- inhibition at 30 g/ha (DIGSA (large crabgrass); Digitaria sanguinalis, PPI application, 30 g/ha, read-out: Percent inhibition DIGSA): 80%
- inhibition at 100 g/ha (DIGSA (large crabgrass); Digitaria sanguinalis, PPI application, 100 g/ha, read-out: Percent inhibition DIGSA): 80%
- inhibition at 300 g/ha (DIGSA (large crabgrass); Digitaria sanguinalis, PPI application, 300 g/ha, read-out: Percent inhibition DIGSA): 80%
- inhibition at 900 g/ha (DIGSA (large crabgrass); Digitaria sanguinalis, PPI application, 900 g/ha, read-out: Percent inhibition DIGSA): 100%
- PPI activity GR80, DIGSA (DIGSA (large crabgrass); [4]): 30 g/ha
- PPI activity GR80, VERPE [2, 4]: 10 g/ha
- inhibition at 10 g/ha ([2]; weed, PPI application, 10 g/ha, read-out: Percent inhibition VERPE): 0%
- inhibition at 30 g/ha ([2]; weed, PPI application, 30 g/ha, read-out: Percent inhibition VERPE): 0%
- inhibition at 100 g/ha ([2]; weed, PPI application, 100 g/ha, read-out: Percent inhibition VERPE): 0%
- inhibition at 300 g/ha ([2]; weed, PPI application, 300 g/ha, read-out: Percent inhibition VERPE): 90%
- inhibition at 900 g/ha ([2]; weed, PPI application, 900 g/ha, read-out: Percent inhibition VERPE): 100%
- inhibition at 10 g/ha ([3]; Elymus repens, weed, PPI application, 10 g/ha, read-out: Percent inhibition AGRRE): 0%
- inhibition at 30 g/ha ([3]; Elymus repens, weed, PPI application, 30 g/ha, read-out: Percent inhibition AGRRE): 40%
- inhibition at 100 g/ha ([3]; Elymus repens, weed, PPI application, 100 g/ha, read-out: Percent inhibition AGRRE): 50%
- inhibition at 300 g/ha ([3]; Elymus repens, weed, PPI application, 300 g/ha, read-out: Percent inhibition AGRRE): 60%
- inhibition at 900 g/ha ([3]; Elymus repens, weed, PPI application, 900 g/ha, read-out: Percent inhibition AGRRE): 70%
- PPI activity GR80, AGRRE [3, 4]: 100 g/ha
